Nine compounds from patent US9540337B2, “Gamma-glutamyl transpeptidase inhibitors and methods of use” (The Board of Regents of the University of Oklahoma, priority 2012, dated 2017) can be followed below.

Where “and” joins values, the source holds several entries; their conditions need not be identical. Identical values can stand only once. Like-named read-outs stand apart in the source and are kept apart here. Where only a bound is given, the exact number is not on record here.

Test [1] addresses T1, Human GGT1 (hGGT) (Homo sapiens, UniProt P19440). Kind of test: L-GpNA Transpeptidation Assay with GlyGly as acceptor. Format: biochemical. Set-up: lacking the transmembrane domain; made in house; host or cells: Pichia pastoris. The note with it: for fold change in L-GpNA Kii (transpeptidation) relative to Compound 16: weaker than Compound 16. On the procedure:
Transpeptidation Reaction: The same assay buffer was used for both the hydrolysis reaction and the transpeptidation reaction. The transpeptidation reaction included 40 mM glycylglycine (glygly, Sigma, St. Louis, Mo.) as the acceptor. […] The concentration of L-GpNA was 3 mM for experiments in which the concentration of glygly was varied. To initiate the transpeptidation reaction, 4 mU GGT were added.
1. […] 3 and 4. […] 5 (25).
L-GpNA Transpeptidation Assay: The assay has been described previously. […] The concentration of L-GpNA was 3 mM for experiments in which the concentration of GlyGly was varied. To initiate the transpeptidation reaction, 4 mU GGT were added.

Test [2] addresses T1, Human GGT1 (hGGT). Kind of test: D-GpNA Hydrolysis Assay (release of pNA, 405 nm, pH 7.4). The conditions noted are these: for Vo (maximum velocity at zero activator) / V∞ (maximum rate at infinite activator): Hydrolysis D-GpNA, Table 3; for maximal fold induction: human. On the procedure:
Enzyme Isolation: Human GGT1 (P19440), lacking the transmembrane domain, was expressed in Pichia pastoris and isolated as previously described (14). […] One unit of GGT activity was defined as the amount of enzyme that released 1 μmol of paranitroaniline/min at 37° C. at pH 7.4 in the transpeptidation reaction.
The reaction was initiated with the addition of 19 mU GGT. The reaction was incubated at 37° C. and monitored continuously at 405 nm by a Bio-Rad model 680 microplate reader with Microplate Manager 5.2 software (Bio-Rad, Hercules, Calif.).
Data Analysis: Samples in each experiment were run in triplicate. Each inhibitor was evaluated in two or more independent experiments. Double reciprocal plots were generated to assess data quality and determine the correct rate equation for data fitting. Data were fitted using the proper rate equation and the Marquardt-Levenberg algorithm supplied with the Enzfitter program (BIOSOFT, Cambridge, UK). Kinetic parameters with standard errors were estimated using a simple weighting method.
Data adhering to Michaelis-Menten Kinetics were fitted to eq. 1. Data for initial rate patterns with D-, L-GpNA varied at different fixed levels of glygly were fitted to eq. […] Data for competitive and uncompetitive inhibition were fitted to eqs. 3 and 4. Data for the dependence of Vmax and Vmax/KD-GpNA on the concentration of activator were fitted using eq. 5 (25).
In eqs 1-6, Vmax are the initial and maximum rates, respectively, Ka and Kb are Michaelis constants for substrates A and B, respectively, and Kis and Kii are slope and intercept inhibition constants. In eq. 5, a is the value of Vmax or Vmax/KD-GpNA at zero activator/inhibitor, KID is the activation or inhibition constant, and KIN is a constant that causes the parameter to go to a constant value at infinite concentrations of X, the activator/inhibitor. The product a(KID/KIN) is the value of Vmax or Vmax/KD-GpNA at infinite activator/inhibitor (25). Data for noncompetitive inhibition were fitted to eq. 6. Data for the dependence of Vmax and Vmax/KD-GpNA on the concentration of activator were fitted using […].
Enzyme Isolation: hGGT (P19440), lacking the transmembrane domain, was expressed in Pichia pastoris and isolated as previously described. […] One unit of GGT activity was defined as the amount of enzyme that released 1 μmol of paranitroaniline/min at 37° C. at pH 7.4 in the transpeptidation reaction with L-GpNA.
D-GpNA Hydrolysis Assay: The assay was carried out as previously described. […] The reaction was initiated with the addition of 19 mU GGT as determined by the L-GpNA transpeptidation assay. The reaction was incubated at 37° C. and monitored continuously at 405 nm.

The target of test [3] is T2, hGGT (Homo sapiens, UniProt P19440).
T2 construct: lacking the transmembrane domain; made in house; host or cells: Pichia pastoris
Nature of the test: L-Glutamate Release Assay (Hydrolysis of GSH). Format: biochemical. The conditions noted are these: for Ki: GSH hydrolysis, read-out: GSH Kii. On the procedure:
L-Glutamate Release Assay (Hydrolysis of GSH): This assay measures the production of glutamate from the hydrolysis of GSH by GGT enzyme and has been described in detail previously. The concentration of the substrate, GSH, was varied from 5 μM to 20 μM. The concentration of the inhibitors, OU749 and its analogs, were varied from 15.6 μM to 250 μM. The reaction was initiated with the addition of 10 mU hGGT. […] All compounds were also evaluated as inhibitors of glutamate dehydrogenase, the enzyme in the second half of the L-glutamate release assay. None of the compounds in this study inhibited glutamate dehydrogenase.

[4] abbreviates: Table 3, read-out: Transpeptidation GlyGly Kis.
Where [5] appears, read: Table 3, read-out: Transpeptidation L-GpNA Kii.
The mark [6] stands for this setting: pH 7.4, read-out: Fold Activation.
Where [7] appears, read: read-out: activation of the Vmax for hydrolysis (V∞/Vo).
The mark [8] stands for this setting: GlyGly varied, 3 mM L-GpNA, Table 2, read-out: Transpeptidation GlyGly Kis.
Where [9] appears, read: Table 4, read-out: L-GpNA with GlyGly Kii.
The mark [10] stands for this setting: L-GpNA varied, 40 mM GlyGly, Table 2, read-out: Transpeptidation L-GpNA Kii.

T2 sequence (P19440 381-569 limits assumed): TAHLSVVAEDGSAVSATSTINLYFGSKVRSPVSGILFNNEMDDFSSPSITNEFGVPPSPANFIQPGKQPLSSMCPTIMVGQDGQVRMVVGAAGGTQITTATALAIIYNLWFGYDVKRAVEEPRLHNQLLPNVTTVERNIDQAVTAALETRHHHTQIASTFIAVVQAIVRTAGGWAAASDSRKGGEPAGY
T2 sequence (P19440 27-380 limits assumed): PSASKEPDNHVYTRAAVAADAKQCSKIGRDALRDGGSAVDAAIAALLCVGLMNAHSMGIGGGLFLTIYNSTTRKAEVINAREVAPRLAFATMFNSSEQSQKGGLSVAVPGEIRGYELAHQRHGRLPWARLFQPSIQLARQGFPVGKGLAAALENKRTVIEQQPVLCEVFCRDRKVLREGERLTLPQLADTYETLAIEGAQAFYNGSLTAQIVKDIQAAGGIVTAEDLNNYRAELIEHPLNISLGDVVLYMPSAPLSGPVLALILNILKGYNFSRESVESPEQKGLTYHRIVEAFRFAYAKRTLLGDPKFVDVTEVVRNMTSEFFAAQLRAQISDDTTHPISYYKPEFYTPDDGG
T1 sequence (P19440 381-569 limits assumed): as the sequence (P19440 381-569 limits assumed) above
T1 sequence (P19440 27-380 limits assumed): as the sequence (P19440 27-380 limits assumed) above

With `Cc1cccc(Cc2nnc(NS(=O)(=O)c3ccc([N+](=O)[O-])cc3)s2)c1` [Compound 18], the Ki is 34.3 ± 0.9 µM in test [1] (setting [4]) and 121 ± 8.8 µM in test [1] (setting [5]). Besides, the “fold change in L-GpNA Kii (transpeptidation) relative to Compound 16” value in test [1] is listed as 2 fold. The “Vo (maximum velocity at zero activator)” value in test [2] amounted to 1.15 ± 0.01 mM/min/nM. For the same compound, the “V∞ (maximum rate at infinite activator)” value in test [2] amounted to 5.08 ± 0.20 mM/min/nM. The maximal fold induction in test [2] (setting [6]) was 4.42 ± 0.64; in test [2] (setting [7]) it was 3 to 6.

Usually kon stands for a measure of how fast the partners come together. For the compound `N[C@H](C(=O)O)[C@@H]1CC(Cl)=NO1` [acivicin, reference compound], the kon in test [2] (pH 7.4, read-out: kon (second order rate constant)) was 2.85 M⁻¹ s⁻¹; in test [2] (pH 7.4, read-out: kon corrected for the presence of D-GpNA), 8 M⁻¹ s⁻¹.

For `O=[N+]([O-])c1ccc(S(=O)(=O)Nc2nnc(Cc3cccc(Cl)c3)s2)cc1` [Compound 15], the Ki in test [1] (setting [4]) is 43.8 ± 7.7 µM; in test [1] (setting [5]) it was 119 ± 7.1 µM. For the same compound, the “fold change in L-GpNA Kii (transpeptidation) relative to Compound 16” value in test [1] stood at 2 fold. In test [2], the “Vo (maximum velocity at zero activator)” value is given as 1.30 ± 0.01 mM/min/nM. In test [2], the “V∞ (maximum rate at infinite activator)” value is given as 5.86 ± 0.23 mM/min/nM. Besides, the maximal fold induction in test [2] (setting [6]) is 4.51 ± 0.05; in test [2] (setting [7]), 3 to 6.

Turning to `COc1ccc(Cc2nnc(NS(=O)(=O)c3ccc(OC)cc3)s2)cc1` [Compound 9], the Ki in test [3] (Table 4) was greater than 250 µM; in test [1] (setting [8]) it was 133 ± 10.3 µM; in test [1] (setting [9]), 149 ± 23 µM; in test [2], 3800 ± 720 µM.

As to `COc1ccc(Cc2nnc(NS(=O)(=O)c3ccc(C(F)(F)F)cc3)s2)cc1` [Compound 12], the results for the Ki in test [1] (setting [8]) and in test [1] (setting [10]) were 46.3 ± 3.5 µM and 117 ± 7.4 µM, respectively.

With `COc1ccc(Cc2nnc(NS(=O)(=O)c3ccc([N+](=O)[O-])cc3)s2)cc1` [Compound 11], the Ki in test [1] (setting [8]) is 96 µM and 95.7 µM; in test [1] (setting [10]) it was 93 µM and 92.8 µM. Also, in test [1] (human), the “difference in affinity for D-γ-glutamyl and L-γ-glutamyl enzyme intermediates” value came to 2.5 fold. Moreover, in test [1] (increase relative to Compound 16), the “fold change in GlyGly Kis (transpeptidation) relative to Compound 16” value is listed as “more than 2 fold”. Besides, the “fold change in L-GpNA Kii (transpeptidation) relative to Compound 16” value in test [1] is listed as “less than 2 fold”. For the same compound, the “Vo (maximum velocity at zero activator)” value in test [2] amounted to 1.59 ± 0.14 mM/min/nM. In addition, the “V∞ (maximum rate at infinite activator)” value in test [2] came out at 8.63 ± 1.21 mM/min/nM. For the same compound, the maximal fold induction in test [2] (setting [6]) stood at 5.43 ± 2.04.

On to `COc1ccc(Cc2nnc(NS(=O)(=O)c3ccc(N)cc3)s2)cc1` [Compound 21], for which the Ki turned out to be 105 ± 14 µM in test [3] (Table 4); 10 ± 1 µM in test [1] (Table 4, read-out: GlyGly with L-GpNA Kis); 36 ± 1 µM in test [1] (setting [9]); 31 ± 1 µM in test [2] (read-out: D-GpNA Kii, Table 4). The “fold more potent than OU749 in inhibiting GSH hydrolysis” value in test [3] (relative to OU749) is given as 3.6 fold.

Turning to `COc1ccc(Cc2nnc(NS(=O)(=O)c3ccc(C(C)(C)C)cc3)s2)cc1` [Compound 7], the Ki was greater than 250 µM in test [3] (Table 4), 143 ± 8.7 µM in test [1] (setting [8]), 150 ± 13 µM in test [1] (setting [10]) and 341 ± 6.4 µM in test [2]. In addition, the “fold less effective than OU749 in inhibiting hydrolysis of D-GpNA” value in test [2] (relative to OU749) was 2-5 fold.

With `CN(C)c1ccc(Cc2nnc(NS(=O)(=O)c3ccc(N)cc3)s2)cc1` [Compound 27], the Ki in test [3] (Table 5) was determined as 363 ± 35 µM; in test [1] (Table 5, read-out: GlyGly with L-GpNA Kis), 24 ± 4 µM; in test [1] (Table 5, read-out: L-GpNA with GlyGly Kii), 275 ± 12 µM; in test [2], 180 ± 5 µM.
